Experiment [1] has as its target FAD-linked sulfhydryl oxidase ALR (Homo sapiens, UniProt P55789). As to the kind of experiment: ALR-catalysed DTT oxidation blockers – biochemical, H2O2 detection, luminescence, cherry-pick, dose response (AID 493248).
In the next experiment the target is T1, Protein skinhead-1 (Caenorhabditis elegans, UniProt P34707).
T1 sequence (P34707 whole entry): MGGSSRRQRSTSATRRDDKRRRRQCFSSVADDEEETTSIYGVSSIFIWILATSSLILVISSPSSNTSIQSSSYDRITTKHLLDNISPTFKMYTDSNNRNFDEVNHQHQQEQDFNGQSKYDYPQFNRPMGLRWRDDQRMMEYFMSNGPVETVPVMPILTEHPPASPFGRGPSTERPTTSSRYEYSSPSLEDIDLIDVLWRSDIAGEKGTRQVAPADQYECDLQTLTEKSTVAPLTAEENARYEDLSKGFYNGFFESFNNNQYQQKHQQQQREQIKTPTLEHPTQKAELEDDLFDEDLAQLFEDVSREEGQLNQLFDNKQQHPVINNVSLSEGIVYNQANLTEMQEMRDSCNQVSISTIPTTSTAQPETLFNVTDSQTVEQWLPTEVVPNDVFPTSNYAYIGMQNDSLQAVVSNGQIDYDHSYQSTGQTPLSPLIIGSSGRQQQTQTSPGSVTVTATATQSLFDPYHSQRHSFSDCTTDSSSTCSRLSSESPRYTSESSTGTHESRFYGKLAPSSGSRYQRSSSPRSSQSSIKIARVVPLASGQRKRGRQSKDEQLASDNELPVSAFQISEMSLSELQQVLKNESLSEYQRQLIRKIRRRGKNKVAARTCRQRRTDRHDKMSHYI
Type of experiment: functional.

The target of experiment [2] is T2, RNA-binding protein pos-1 (Caenorhabditis elegans, UniProt G5EF15).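 Also: purified POS-1 fused to maltose binding protein made in E. coli; potency of compounds blocking POS-1 binding to fluorescent RNA.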
T2 sequence (G5EF15 whole entry): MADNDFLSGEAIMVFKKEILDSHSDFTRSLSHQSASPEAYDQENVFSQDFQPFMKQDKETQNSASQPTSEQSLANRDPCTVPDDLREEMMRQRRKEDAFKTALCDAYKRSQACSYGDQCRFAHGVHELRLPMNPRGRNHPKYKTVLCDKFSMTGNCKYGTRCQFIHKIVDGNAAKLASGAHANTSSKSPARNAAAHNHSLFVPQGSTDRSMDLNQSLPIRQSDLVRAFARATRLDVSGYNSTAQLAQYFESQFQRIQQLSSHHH
Description: disruptors of C. elegans POS-1 RNA interaction – biochemical, fluorescence polarization, dose response (AID 1964). (In general: Fluorescence polarisation rises when a labelled molecule tumbles more slowly, as on binding a larger partner.)

A short description of experiment [3]: cells. The format is functional, cell-based.
The target of experiment [4] is T3, Zinc finger protein mex-5 (Caenorhabditis elegans, UniProt Q9XUB2).
T3 sequence (Q9XUB2 whole entry): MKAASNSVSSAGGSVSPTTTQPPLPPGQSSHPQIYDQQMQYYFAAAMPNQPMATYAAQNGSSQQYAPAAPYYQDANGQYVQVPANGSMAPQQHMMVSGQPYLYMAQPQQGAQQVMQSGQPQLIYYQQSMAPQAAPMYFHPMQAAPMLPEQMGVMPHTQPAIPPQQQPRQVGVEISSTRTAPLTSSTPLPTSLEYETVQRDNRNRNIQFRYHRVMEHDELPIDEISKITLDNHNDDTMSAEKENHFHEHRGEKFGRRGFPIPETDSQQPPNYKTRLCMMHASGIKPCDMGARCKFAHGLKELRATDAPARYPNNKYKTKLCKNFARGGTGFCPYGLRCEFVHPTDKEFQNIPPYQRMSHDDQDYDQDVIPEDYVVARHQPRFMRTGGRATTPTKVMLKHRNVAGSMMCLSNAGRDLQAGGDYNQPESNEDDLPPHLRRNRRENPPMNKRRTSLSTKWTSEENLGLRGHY
As to the kind of experiment: potency of MEX-5 RNA-binding blockers – biochemical, C. elegans, fluorescence polarization, dose response (AID 1960).

A short description of experiment [5]: cells. The format is functional, cell-based. The source holds these as a separate data set.
Experiment [6] deals with T4, Microphthalmia-associated transcription factor (Homo sapiens, UniProt O75030).
T4 sequence (O75030 whole entry): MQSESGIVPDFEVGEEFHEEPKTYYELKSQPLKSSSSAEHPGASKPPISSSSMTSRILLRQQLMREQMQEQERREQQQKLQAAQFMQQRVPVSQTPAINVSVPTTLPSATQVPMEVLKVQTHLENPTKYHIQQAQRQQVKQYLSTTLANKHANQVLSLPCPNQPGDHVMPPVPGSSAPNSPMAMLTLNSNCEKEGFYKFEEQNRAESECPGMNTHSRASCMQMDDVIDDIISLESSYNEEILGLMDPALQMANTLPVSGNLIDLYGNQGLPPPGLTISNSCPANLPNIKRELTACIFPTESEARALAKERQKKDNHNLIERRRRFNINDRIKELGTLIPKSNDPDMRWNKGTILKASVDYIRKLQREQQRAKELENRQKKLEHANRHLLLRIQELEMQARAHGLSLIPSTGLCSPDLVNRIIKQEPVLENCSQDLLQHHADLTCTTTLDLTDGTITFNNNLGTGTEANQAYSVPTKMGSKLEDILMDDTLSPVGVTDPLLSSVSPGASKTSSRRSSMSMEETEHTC
Description: reducers of TRPM1 reporter luminescence, concentration series – cell-based, SK-MEL-5, cherry-picked, set 3, MITF inhibitor project, dose response (AID 493073).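 Also: SK-MEL-5 melanoma cells with luciferase driven by the MITF target TRPM1 promoter.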 The format is functional.

For experiment [7], the system named is Streptococcus sp. 'group A'. Description: Streptococcus pyogenes SK(-)GAS viability under kanamycin – luminescence, BacTiterGlo, confirmation, counter-screen for streptokinase expression inhibitor project, dose response (AID 1900). Type of experiment: functional, organism-based.
A further experiment concerns Streptococcus. Description: GAS UMAA2166 growth inhibition – luminescence, BacTiterGlo, counter-screen for streptokinase expression inhibitor project, dose response (AID 1915).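 Also: potency for reduction of bacterial viability or growth.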 The format is functional, organism-based. (In general: A counterscreen serves to expose hits that act by an unwanted route or on another target.)
The test system of a further experiment is INS1. As to the kind of experiment: INS-1E survival protection against cytokine death – cell-based, luminescence, retest, dose response (AID 449756).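 Also: cell death triggered by IL-1 beta plus TNF-alpha plus IFN-gamma mixture; protective hits raise ATP signal compared with cytokine alone wells.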 The format is functional. To be noted: Rattus norvegicus.

Structures are written as SMILES. Activity calls are given as the source filed them. Rule as the data show it, for most assays here: actives have a measured EC50 and inactives only a lower limit. Bounds are passed on as bounds.

Broadly, the AC50 is the concentration at which the activity in the assay is half-maximal. The IC50 is the concentration at which inhibition is half-maximal. For orientation: EC50 means the concentration giving half of the maximal effect.

FAD-linked sulfhydryl oxidase ALR, sequence (P55789 whole entry): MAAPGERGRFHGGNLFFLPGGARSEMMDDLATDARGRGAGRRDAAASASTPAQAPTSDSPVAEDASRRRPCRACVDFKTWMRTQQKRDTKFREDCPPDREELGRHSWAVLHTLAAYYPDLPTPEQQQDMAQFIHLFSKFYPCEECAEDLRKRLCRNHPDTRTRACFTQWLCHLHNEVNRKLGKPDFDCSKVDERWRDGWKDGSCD

As for `Oc1ccc(Br)cc1-c1cc(-c2ccco2)[nH]n1`, the AC50 in experiment [1] was 3.51 µM (active).

As for `c1csc(-c2ccc3ccccc3n2)c1`, the IC50 on Protein skinhead-1 is 35.1 µM (active).

Consider `CC1(OC(=O)c2cccs2)C(=O)C=C2C=C(C3CC3)OC=C2C1=O` (stereo not given), for which the EC50 in [2] is 42.3 µM (active); in the experiment “cells [3]” it was > 350 µM (not active); in [4], 33 µM (active); in “cells [5]”, > 350 µM (not active).

Regarding `Cc1cc(NC(=O)C2CC(=O)N(c3cccc(C)c3C)C2)no1` (stereo not given), the EC50 in the experiment “cells [3]” and in the experiment “cells [5]” was > 350 µM (not active) throughout.

As for `O=C(NCCCN1CCOCC1)c1cc(-c2ccccc2F)no1`, the EC50 in the experiment “cells [3]” is 113 µM (active); in “cells [5]” it was > 350 µM (not active).

Regarding `Fc1ccc(-c2csc(-c3ccncc3)n2)cc1`, on Protein skinhead-1, the IC50 is 10.5 µM (active).

`Cc1c(C(=O)N2CCCCC2)c(S(=O)(=O)NCCc2ccc(Cl)cc2)c(C)n1C`: the EC50 in the experiment “cells [3]” and in the experiment “cells [5]” was > 350 µM (not active) in each case.

With `Cc1ccc(C)c(SCC(=O)OCC(=O)N2CC(C)OC(C)C2)c1` (stereo not given), the EC50 in the experiment “cells [3]” and in “cells [5]” was > 350 µM (not active) in each case.

For `O=[N+]([O-])c1ccc(CSC2=NCCN2)cc1`, the AC50 in [1] is 0.04 µM (active).

Turning to `COc1ccc(C(=O)Nc2cccc(OC(=O)c3ccc(C)c(C)c3)c2)cc1`, the IC50 at Protein skinhead-1 is > 100 µM (inactive).

For `Cc1cc(Nc2ccccc2)cc(=O)n1C`, the EC50 in “cells [3]” and in “cells [5]” was > 350 µM (not active) each time.

Regarding `Clc1ccc(SCc2cc(-c3ccc(Cl)cc3)on2)cc1`, the IC50 at Protein skinhead-1 is > 100 µM (inactive).

Turning to `Fc1ccc(CSc2nnc(-c3cnccn3)n2Cc2ccco2)cc1`, the AC50 in [1] is 3.85 µM (active).

As for `CCC(C)C(=O)N1CCc2cc(-c3csc(N)n3)ccc21` (stereo not given), the AC50 in [1] was 0.3 µM (active).

Take `CCc1nc2oc3ccccc3c(=O)c2c(=O)n1-c1ccccc1`: on Protein skinhead-1, the IC50 is > 100 µM (inactive).

Regarding `O=C(O)c1cccc(NC(=O)c2cccc(NC(=O)C3CCCO3)c2)c1` (stereo not given), the AC50 in experiment [6] is 21.2 µM (active).

Take `CCc1ccc(C(=O)Nc2ccc3nc(C)ccc3c2)cc1`: the IC50 on Protein skinhead-1 is 10.1 µM (active).

Take `O=C(NCc1ccc(Cl)cc1)C1CCN(c2nnc(N3CCCC3=O)s2)CC1`: the IC50 at Protein skinhead-1 is > 100 µM (inactive).

In the case of `O=C(O)C(Oc1ccc2ccccc2c1)c1ccccc1` (stereo not given), the IC50 at Protein skinhead-1 was > 100 µM (inactive).

For `Cc1cc(-c2nnc(S)n2/N=C/C(Cl)=C/c2ccccc2)[nH]n1`, in experiment [1], the AC50 was 0.109 µM (active).

Consider `Cc1cccc(/C=N/NC(=O)c2ccc3c(c2)OCCO3)c1O`, for which the concentration for a half-maximal effect (EC50) in [7] was 3.05 µM (active); in “cells [3]”, 66.1 µM (active); in the experiment “cells [5]” it was 6.39 µM (active); with Streptococcus, 6.82 µM (active). In the experiment on INS1, the AC50 is 1.8 µM (active).

Take `C/C(=N\NC(=O)CCCNc1cccc(C)c1)c1ccncc1`: the AC50 in experiment [1] is 2.59 µM (active).

For the molecule `C/C(=N\Nc1ccc(Cl)cc1)c1ccccn1`, the AC50 in experiment [1] was 1.03 µM (active).

For the origin of these results see ChEMBL document CHEMBL1201862, “PubChem BioAssay data set” (2004).
